Experimental data published in US20260132132A1, “3A,4,5,6-TETRAHYDRO-1 H-PYRAZOLO[3,4-C]PYRIDIN-7(7AH)-ONE DERIVATIVES AS FACTOR XIIA INHIBITORS” (KALVISTA PHARMACEUTICALS LIMITED, priority 2022, published 2026).

What was measured:
Format in all cases: biochemical
[1] = target: T1, Human Factor XIIa (hFXIIa) (Homo sapiens, UniProt P00748); experiment: Determination of Human Factor XIIa (hFXIIa) inhibition, fluorogenic substrate IC50 assay; details: fluorogenic substrate H-DPro-Phe-Arg-AFC at Km, 25° C., read-out: Human FXIIa IC50
T1 construct: purchased Enzyme Research Laboratories
T1 sequence (P00748 373-615 limits assumed): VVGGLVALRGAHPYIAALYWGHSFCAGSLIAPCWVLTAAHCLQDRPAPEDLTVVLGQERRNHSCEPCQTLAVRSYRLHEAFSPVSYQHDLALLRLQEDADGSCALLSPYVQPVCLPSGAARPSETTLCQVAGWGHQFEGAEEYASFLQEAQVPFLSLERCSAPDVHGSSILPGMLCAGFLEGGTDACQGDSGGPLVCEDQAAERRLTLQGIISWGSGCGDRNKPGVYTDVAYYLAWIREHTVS
T1 sequence (P00748 20-372 partner limits assumed): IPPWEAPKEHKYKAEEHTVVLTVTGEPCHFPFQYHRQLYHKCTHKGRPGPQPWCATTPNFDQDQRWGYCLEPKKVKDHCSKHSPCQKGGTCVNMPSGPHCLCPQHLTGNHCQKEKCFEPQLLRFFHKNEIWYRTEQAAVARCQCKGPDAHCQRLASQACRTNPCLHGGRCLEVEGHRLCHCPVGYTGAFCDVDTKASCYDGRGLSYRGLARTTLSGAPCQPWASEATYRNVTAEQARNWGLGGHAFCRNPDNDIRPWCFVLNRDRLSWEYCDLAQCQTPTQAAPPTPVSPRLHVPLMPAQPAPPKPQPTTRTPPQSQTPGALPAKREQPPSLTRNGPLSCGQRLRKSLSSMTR
Protocol: Determination of Human Factor XIIa (hFXIIa) inhibition
The Km for the cleavage of the substrate by hFXIIa was determined by standard transformation of the Michaelis-Menten equation, with subsequent inhibition assays performed at substrate Km concentration.

FXa = FXa (Homo sapiens, UniProt P00742); experiment: Related protease inhibition: FXa, fluorogenic substrate; details: fluorogenic substrate at Km, 25° C., H1-H3 = % activity at 40 μM; for activity at 40 µM: read-out: IC50 (human FXa) nM
Sequence of FXa (P00742 235-488 limits assumed): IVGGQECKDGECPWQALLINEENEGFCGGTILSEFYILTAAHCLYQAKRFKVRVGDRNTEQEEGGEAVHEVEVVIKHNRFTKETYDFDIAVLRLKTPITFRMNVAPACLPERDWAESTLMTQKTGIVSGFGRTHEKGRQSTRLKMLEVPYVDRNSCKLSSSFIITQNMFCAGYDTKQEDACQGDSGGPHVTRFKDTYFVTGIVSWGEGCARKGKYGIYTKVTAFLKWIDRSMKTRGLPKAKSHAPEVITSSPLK
Sequence of FXa (P00742 41-179 partner limits assumed): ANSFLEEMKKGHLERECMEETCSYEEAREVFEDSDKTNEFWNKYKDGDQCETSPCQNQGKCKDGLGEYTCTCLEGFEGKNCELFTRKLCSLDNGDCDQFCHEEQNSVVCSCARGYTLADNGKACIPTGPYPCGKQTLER
Protocol: (§1) Human serine protease enzyme Plasma Kallikrein, KLK1, FXa, Plasmin, Thrombin and Trypsin were assayed for enzymatic activity using an appropriate fluorogenic substrate at Km concentration, FXIa at fixed substrate concentration of 100 μM and various concentrations of the test compound.

Thrombin = Thrombin (Homo sapiens, UniProt P00734); experiment: Related protease inhibition: Thrombin, fluorogenic substrate; details: fluorogenic substrate at Km, 25° C., H1-H3 = % activity at 40 μM; for activity at 40 µM: read-out: IC50 (human thrombin) nM
Protocol: as §1

| SMILES | IC50 [1] | activity at 40 µM (FXa) | activity at 40 µM (Thrombin) | IC50 (FXa) | IC50 (Thrombin) |
| --- | --- | --- | --- | --- | --- |
| CCNC(=O)c1nn(-c2cccc(OC)n2)c2c1CCN(c1ccc3c(c1)C(=O)N(C)CC3)C2=O [Example 2037, N-ethyl-1-(6-methoxypyridin-2-yl)-6-(2-methyl-1-oxo-1,2,3,4-tetrahydroisoquinolin-7-yl)-7-oxo-4,5,6,7-tetrahydro-1H-pyrazolo[3,4-c]pyridine-3-carboxamide] | 10 to 40 µM | > 80% | > 80% |  |  |
| COCc1nn(-c2cccc(C#N)c2C)c2c1CCN(c1ccc3c(c1)C(=O)N(C)CC3)C2=O [Example 2038, 3-(3-(Methoxymethyl)-6-(2-methyl-1-oxo-1,2,3,4-tetrahydroisoquinolin-7-yl)-7-oxo-4,5,6,7-tetrahydro-1H-pyrazolo[3,4-c]pyridin-1-yl)-2-methylbenzonitrile] | 10 to 40 µM | > 80% | > 80% |  |  |
| CCNC(=O)c1nn(-c2cccc(C#N)c2C)c2c1CCN(c1ccc3c(c1)C(=O)N(C)CC3)C2=O [Example 2042, 1-(3-cyano-2-methylphenyl)-N-ethyl-6-(2-methyl-1-oxo-1,2,3,4-tetrahydroisoquinolin-7-yl)-7-oxo-4,5,6,7-tetrahydro-1H-pyrazolo[3,4-c]pyridine-3-carboxamide] | 10 to 40 µM | > 80% | 20 to 80% |  |  |
| CN1CCc2ccc(N3CCc4cnn(-c5cc(Cl)cc(CN)c5)c4C3=O)cc2C1=O [Example 2047, 7-(1-(3-(aminomethyl)-5-chlorophenyl)-7-oxo-1,4,5,7-tetrahydro-6H-pyrazolo[3,4-c]pyridin-6-yl)-2-methyl-3,4-dihydroisoquinolin-1(2H)-one] | 10 to 40 µM | > 80% | > 80% |  |  |
| CCNC(=O)c1nn(-c2cccc(Cl)c2CO)c2c1CCN(c1ccc3c(c1)C(=O)N(C)CC3)C2=O [Example 2052, 1-(3-chloro-2-(hydroxymethyl)phenyl)-N-ethyl-6-(2-methyl-1-oxo-1,2,3,4-tetrahydroisoquinolin-7-yl)-7-oxo-4,5,6,7-tetrahydro-1H-pyrazolo[3,4-c]pyridine-3-carboxamide] | 10 to 40 µM | > 80% | > 80% |  |  |
| CCNC(=O)c1nn(-c2ccc(O)c(Cl)c2)c2c1CCN(c1ccc3c(c1)C(=O)N(C)CC3)C2=O [Example 2054, 1-(3-chloro-4-hydroxyphenyl)-N-ethyl-6-(2-methyl-1-oxo-1,2,3,4-tetrahydroisoquinolin-7-yl)-7-oxo-4,5,6,7-tetrahydro-1H-pyrazolo[3,4-c]pyridine-3-carboxamide] | 3 to 10 µM | > 80% | > 80% |  |  |
| CCNC(=O)c1nn(-c2cc(Cl)cc(COC)c2)c2c1CCN(c1ccc3c(c1)C(=O)N(C)CC3)C2=O [Example 2058, 1-(3-chloro-5-(methoxymethyl)phenyl)-N-ethyl-6-(2-methyl-1-oxo-1,2,3,4-tetrahydroisoquinolin-7-yl)-7-oxo-4,5,6,7-tetrahydro-1H-pyrazolo[3,4-c]pyridine-3-carboxamide] | 3 to 10 µM |  |  | > 40 µM | > 40 µM |

Further lines, results first:

| IC50 [1] | activity at 40 µM (FXa) | activity at 40 µM (Thrombin) | IC50 (FXa) | IC50 (Thrombin) | SMILES |
| --- | --- | --- | --- | --- | --- |
| 0.01 to 0.1 µM | 20 to 80% | 20 to 80% |  |  | COCc1nn(-c2cc(Cl)cc(CN)c2)c2c1CCN(c1ccc3c(c1)C(=O)N(C)CC3)C2=O [Example 2041, 7-(1-(3-(aminomethyl)-5-chlorophenyl)-3-(methoxymethyl)-7-oxo-1,4,5,7-tetrahydro-6H-pyrazolo[3,4-c]pyridin-6-yl)-2-methyl-3,4-dihydroisoquinolin-1(2H)-one] |
| 0.01 to 0.1 µM | 20 to 80% | 20 to 80% |  |  | CN1CCc2ccc(N3CCc4c(C(=O)N[C@@H](CO)C5CC5)nn(-c5cccc(Cl)c5F)c4C3=O)cc2C1=O [Example 2043, (R)-1-(3-chloro-2-fluorophenyl)-N-(1-cyclopropyl-2-hydroxyethyl)-6-(2-methyl-1-oxo-1,2,3,4-tetrahydroisoquinolin-7-yl)-7-oxo-4,5,6,7-tetrahydro-1H-pyrazolo[3,4-c]pyridine-3-carboxamide] |
| 0.01 to 0.1 µM | > 80% | 20 to 80% |  |  | Cc1ccc(CNC(=O)c2nn(-c3cccc(Cl)c3F)c3c2CCN(c2ccc4c(c2)C(=O)N(C)CC4)C3=O)cn1 [Example 2044, 1-(3-chloro-2-fluorophenyl)-6-(2-methyl-1-oxo-1,2,3,4-tetrahydroisoquinolin-7-yl)-N-((6-methylpyridin-3-yl)methyl)-7-oxo-4,5,6,7-tetrahydro-1H-pyrazolo[3,4-c]pyridine-3-carboxamide] |
| 3 to 10 µM | 20 to 80% | 20 to 80% |  |  | CCNC(=O)c1nn(-c2cc(C)cs2)c2c1CCN(c1ccc3c(c1)C(=O)N(C)CC3)C2=O [Example 2045, N-ethyl-6-(2-methyl-1-oxo-1,2,3,4-tetrahydroisoquinolin-7-yl)-1-(4-methylthiophen-2-yl)-7-oxo-4,5,6,7-tetrahydro-1H-pyrazolo[3,4-c]pyridine-3-carboxamide] |
| 0.01 to 0.1 µM | > 80% | > 80% |  |  | CN1CCOc2ccc(N3CCc4c(C(=O)NCC5CC5)nn(-c5cccc(Cl)c5F)c4C3=O)cc2C1=O [Example 2046, 1-(3-chloro-2-fluorophenyl)-N-(cyclopropylmethyl)-6-(4-methyl-5-oxo-2,3,4,5-tetrahydrobenzo[f][1,4]oxazepin-7-yl)-7-oxo-4,5,6,7-tetrahydro-1H-pyrazolo[3,4-c]pyridine-3-carboxamide] |
| 0.01 to 0.1 µM | 20 to 80% | 20 to 80% |  |  | CN1CCOc2ccc(N3CCc4c(C(=O)NC56CC(O)(C5)C6)nn(-c5cccc(Cl)c5F)c4C3=O)cc2C1=O [Example 2050, 1-(3-chloro-2-fluorophenyl)-N-(3-hydroxybicyclo[1.1.1]pentan-1-yl)-6-(4-methyl-5-oxo-2,3,4,5-tetrahydrobenzo[f][1,4]oxazepin-7-yl)-7-oxo-4,5,6,7-tetrahydro-1H-pyrazolo[3,4-c]pyridine-3-carboxamide] |
| 0.3 to 1 µM | 20 to 80% | > 80% |  |  | CCNC(=O)c1nn(-c2cc(C)cc(Cl)c2)c2c1CCN(c1ccc3c(c1)C(=O)N(C)CC3)C2=O [Example 2051, 1-(3-chloro-5-methylphenyl)-N-ethyl-6-(2-methyl-1-oxo-1,2,3,4-tetrahydroisoquinolin-7-yl)-7-oxo-4,5,6,7-tetrahydro-1H-pyrazolo[3,4-c]pyridine-3-carboxamide] |
| 0.01 to 0.1 µM | 20 to 80% | > 80% |  |  | CN1CCOc2ccc(N3CCc4c(C(=O)N[C@H](CO)C5CC5)nn(-c5cccc(Cl)c5F)c4C3=O)cc2C1=O [Example 2053, (S)-1-(3-chloro-2-fluorophenyl)-N-(1-cyclopropyl-2-hydroxyethyl)-6-(4-methyl-5-oxo-2,3,4,5-tetrahydrobenzo[f][1,4]oxazepin-7-yl)-7-oxo-4,5,6,7-tetrahydro-1H-pyrazolo[3,4-c]pyridine-3-carboxamide] |
| 0.01 to 0.1 µM | 20 to 80% | > 80% |  |  | CN1CCc2ccc(N3CCc4c(C(=O)NCC(=O)O)nn(-c5cc(Cl)cc(CN)c5)c4C3=O)cc2C1=O [Example 2056, (1-(3-(aminomethyl)-5-chlorophenyl)-6-(2-methyl-1-oxo-1,2,3,4-tetrahydroisoquinolin-7-yl)-7-oxo-4,5,6,7-tetrahydro-1H-pyrazolo[3,4-c]pyridine-3-carbonyl)glycine] |
| 1 to 3 µM | 20 to 80% | 20 to 80% |  |  | CCNC(=O)c1nn(-c2ccc(Cl)c(C)c2)c2c1CCN(c1ccc3c(c1)C(=O)N(C)CC3)C2=O [Example 2057, 1-(4-chloro-3-methylphenyl)-N-ethyl-6-(2-methyl-1-oxo-1,2,3,4-tetrahydroisoquinolin-7-yl)-7-oxo-4,5,6,7-tetrahydro-1H-pyrazolo[3,4-c]pyridine-3-carboxamide] |
